Assay results reported in patent US20080063628A1, “METHODS TO PROMOTE CELL DIFFERENTIATION” (priority 2006, published 2008).

Legend:
Type in all cases: cell-based, human
[1] = test system: early passage (P5) pancreatic-derived stromal cell line; test: 6 hour trichostatin A treatment, gene expression by RT-PCR (Example 10); conditions: for HNF-3 beta gene expression / Insulin gene expression / Pdx-1 gene expression / glucagon gene expression: 5 μM for 6 h then removed
Protocol: (§1) Amniotic fluid derived cells or pancreas-derived cells were seeded into 24-well tissue culture plates at a density of 5000/cm^2 and cultured in AMNIOMAX (Invitrogen) or DMEM with 10% FBS respectively under standard cell culture conditions until confluency was reached. Upon reaching confluency, amniotic fluid derived cells were treated with 1.25 μM trichostatin A and pancreas-derived stromal cells were treated with 5.0 μM trichostatin A. The media was changed 6 hours following the addition of trichostatin A and cultures were maintained for the remainder of the experiment. Several cell lines obtained from amniotic fluid (see Example 14) and pancreas (see Example 13) were tested.
(§2) RNA samples were obtained at the time the trichostatin A was removed and 24 hours from the start of the experiment. The culture media was removed and cells were washed with PBS then collected in RLT Lysis Buffer with β-mercaptoethanol (Qiagen). RNA was purified using the RNeasy Mini Kit (Qiagen) and RNA quantity and quality was determined using a spectrophotometer. cDNA was made using the iScript cDNA synthesis kit (BioRad). Human pancreas cDNA was included as a control. Results were normalized against GAPDH expression levels.
(§3) The expression levels of Sox17, HNF-3 beta, Pdx-1, Insulin, and Gata-1 were analyzed in amniotic-derived cells while the expression levels of glucagon, insulin, PDX-1 and HNF-3 beta were analyzed in pancreas-derived cells. 20 ng of cDNA was used in each RT-PCR reaction, which was performed on the Applied Biosystems 7500, according to the methods described in Example 15. Data was analyzed using the accompanying software.
(§4) Real-time PCR amplifcation and quantitative analysis. Unless otherwise stated, all reagents were purchased from Applied Biosystems. Real-time PCR reactions were performed using the ABI PRISM™ 7500 Sequence Detection System. TAQMAN™ FAST UNIVERSAL PCR MASTER MIX™ (ABI, CA) was used with 20 ng of reverse transcribed RNA in a total reaction volume of 20 μl. Each cDNA sample was run in duplicate to allow correction of pipetting errors. Primers and FAM-labeled TAQMAN™ probes were used at concentrations of 200 nM. The level of expression for each target gene was normalized using the pre-developed Applied Biosystem's human glyceraldehyde-3-phosphate dehydrogenase (GAPDH) endogenous control kit. Primers and probes were designed using either ABI PRISM PRIMER EXPRESS™ software or a pre-developed ABI gene analysis kit. For each gene, either one of the primers or the probe were designed to be exon-boundary spanning. This eliminated the possibility of the primers/probe binding to any genomic DNA present. The primer and probe sets are listed as follows: Pdx-1 (Hs00426216), Insulin (Hs00355773), glucagon (Hs00174967), and FoxA2 (HNF 3-beta) (Hs00232764). The remaining primers were designed using the PRIMERS program (ABI, CA). After an initial 95° C. incubation for 20 sec, samples were cycled 40 times in two stages: a denaturation step at 95° C. for 3 sec, followed by an annealing/extension step at 60° C. for 30 sec.
(§5) For each primer/probe set, a cycle time value was determined as the cycle number at which the fluorescence intensity of the PCR reaction reached a specific value in the middle of the exponential region of amplification. An increase in expression of a gene corresponded to a decrease in the number of cycles required for the fluorescence intensity to reach this value.

[2] = test system: second amniotic fluid-derived cell line; test: as above; conditions: for Gata1 gene expression / HNF-3 beta gene expression / Insulin gene expression / Pdx-1 gene expression / sox17 gene expression: 1.25 μM for 6 h then removed
Protocol: as §1, §2, §3, §4, §5

[3] = test system: amniotic fluid-derived cell line AFCA009-A; test: Trichostatin A 24 h time course, gene expression by Real-Time PCR (Example 2); conditions: 1.25 μM
Protocol: Amniotic fluid derived cells were seeded into 24-well tissue culture plates at a density of 5000/cm^2 and cultured in AMNIOMAX medium (Invitrogen) under standard cell culture conditions until confluent. Cells were obtained according to methods described in Example 14. After reaching confluence, 1.25 μM trichostatin A diluted in DMSO and medium was added to sample wells; an equivalent concentration of DMSO was added to control wells as a no treatment control.
RNA samples were obtained from treated cultures at 30 minutes, 1.5 hours, 3 hours, 6 hours, 12 hours, and 24 hours following addition of trichostatin A or DMSO. Culture medium was removed, cells were washed with PBS, and RLT lysis buffer with β-mercaptoethanol (Qiagen) was added. RNA was purified using the RNeasy Mini Kit (Qiagen). RNA quantity and quality was determined using a spectrophotometer, and cDNA was made using the iScript cDNA synthesis kit (BioRad).
Expression levels of Sox17, HNF-3 beta, Pdx-1, insulin, and glucagon were determined by Real-Time PCR. Samples of 20 ng cDNA were used in each reaction, performed on the Applied Biosystems 7500 according to methods described in Example 15. Data analysis was performed using the accompanying software. Human pancreas cDNA was included as a positive control, and results were normalized against GAPDH expression levels.
as §4, §5

[4] = 5.0 μM, following 6 h treatment

With `CC(/C=C/C(=O)NO)=C\[C@@H](C)C(=O)c1ccc(N(C)C)cc1` [trichostatin A] the “HNF-3 beta gene expression” value ([1]; 6 hrs) was “+++ (detectable at less than 35 cycles by RT-PCR with SE less than 0.9)”, the Insulin gene expression ([1]; 6 hrs) was “nd (not detectable at >40 cycles by RT-PCR)” and the Pdx-1 gene expression ([1]; 6 hrs) was “+ (detectable between 35 and 40 cycles by RT-PCR)”. For the same compound, the glucagon gene expression ([1]; 6 hrs) was “+ (detectable between 35 and 40 cycles by RT-PCR)”, the “HNF-3 beta gene expression” value ([1]; 24 hrs) was “nd (not detectable at >40 cycles by RT-PCR)” and the Insulin gene expression ([1]; 24 hrs) was “+++ (detectable at less than 35 cycles by RT-PCR with SE less than 0.9)”. The Pdx-1 gene expression ([1]; 24 hrs) was “nd (not detectable at >40 cycles by RT-PCR)”, the glucagon gene expression ([1]; 24 hrs) was “+ (detectable between 35 and 40 cycles by RT-PCR)” and the “Insulin RT-PCR detection cycle” value ([1]; 5.0 μM, after trichostatin A was removed from the media) was 32 cycles. The “HNF-3 beta RT-PCR detection cycle” value [1, 4] was 35 cycles, the “glucagon RT-PCR detection cycle” value [1, 4] was 37 cycles and the “Pdx-1 RT-PCR detection cycle” value ([1]; 5.0 μM, following treatment (38 before treatment)) was 35 cycles. The Gata1 gene expression ([2]; 6 hrs) was “nd (not detectable at >40 cycles by RT-PCR)”, the “HNF-3 beta gene expression” value ([2]; 6 hrs) was “+++ (detectable at less than 35 cycles by RT-PCR with SE less than 0.9)” and the Insulin gene expression ([2]; 6 hrs) was “nd (not detectable at >40 cycles by RT-PCR)”. The Pdx-1 gene expression ([2]; 6 hrs) was “+++ (detectable at less than 35 cycles by RT-PCR with SE less than 0.9)”, the sox17 gene expression ([2]; 6 hrs) was “+++ (detectable at less than 35 cycles by RT-PCR with SE less than 0.9)” and the Gata1 gene expression ([2]; 24 hrs) was “nd (not detectable at >40 cycles by RT-PCR)”. The “HNF-3 beta gene expression” value ([2]; 24 hrs) was “+ (detectable between 35 and 40 cycles by RT-PCR)”, the Insulin gene expression ([2]; 24 hrs) was “nd (not detectable at >40 cycles by RT-PCR)” and the Pdx-1 gene expression ([2]; 24 hrs) was “nd (not detectable at >40 cycles by RT-PCR)”. The sox17 gene expression ([2]; 24 hrs) was “+++ (detectable at less than 35 cycles by RT-PCR with SE less than 0.9)”, the “HNF-3 beta RT-PCR detection cycle” value ([2]; 1.25 μM, 6 hours of treatment) was 31 cycles and the “Pdx-1 RT-PCR detection cycle” value ([2]; 1.25 μM, 6 hours of treatment) was 35 cycles. The “HNF-3 beta RT-PCR detection cycle” value ([2]; 1.25 μM, following removal) was 35 cycles, the HNF-3 beta gene expression ([3]; 0.5 h) was “+ (detectable between 35 and 40 cycles by RT-PCR)” and the Insulin gene expression ([3]; 0.5 h) was “+ (detectable between 35 and 40 cycles by RT-PCR)”. The PDX-1 gene expression ([3]; 0.5 h) was “nd (not detectable at >40 cycles by RT-PCR)”, the Sox17 gene expression ([3]; 0.5 h) was “+++ (detectable at less than 35 cycles by RT-PCR with std error less than 0.9)” and the glucagon gene expression ([3]; 0.5 h) was “nd (not detectable at >40 cycles by RT-PCR)”. The “HNF-3 beta RT-PCR detection cycle” value ([3]; 30 minutes) was > 35 cycles, the HNF-3 beta gene expression ([3]; 1.5 h) was “+ (detectable between 35 and 40 cycles by RT-PCR)” and the Insulin gene expression ([3]; 1.5 h) was “+ (detectable between 35 and 40 cycles by RT-PCR)”. For the same compound, the PDX-1 gene expression ([3]; 1.5 h) was “nd (not detectable at >40 cycles by RT-PCR)”, the Sox17 gene expression ([3]; 1.5 h) was “+++ (detectable at less than 35 cycles by RT-PCR with std error less than 0.9)” and the glucagon gene expression ([3]; 1.5 h) was “nd (not detectable at >40 cycles by RT-PCR)”. The HNF-3 beta gene expression ([3]; 3 h) was “+++ (detectable at less than 35 cycles by RT-PCR with std error less than 0.9)”, the Insulin gene expression ([3]; 3 h) was “+ (detectable between 35 and 40 cycles by RT-PCR)” and the PDX-1 gene expression ([3]; 3 h) was “nd (not detectable at >40 cycles by RT-PCR)”. The Sox17 gene expression ([3]; 3 h) was “+++ (detectable at less than 35 cycles by RT-PCR with std error less than 0.9)”, the glucagon gene expression ([3]; 3 h) was “nd (not detectable at >40 cycles by RT-PCR)” and the HNF-3 beta gene expression ([3]; 6 h) was “+++ (detectable at less than 35 cycles by RT-PCR with std error less than 0.9)”. For the same compound, the Insulin gene expression ([3]; 6 h) was “nd (not detectable at >40 cycles by RT-PCR)”, the PDX-1 gene expression ([3]; 6 h) was “+ (detectable between 35 and 40 cycles by RT-PCR)” and the Sox17 gene expression ([3]; 6 h) was “+++ (detectable at less than 35 cycles by RT-PCR with std error less than 0.9)”. For the same compound, the glucagon gene expression ([3]; 6 h) was “nd (not detectable at >40 cycles by RT-PCR)”, the “Pdx-1 RT-PCR detection cycle” value ([3]; 6 hours) was > 35 cycles and the HNF-3 beta gene expression ([3]; 12 h) was “+++ (detectable at less than 35 cycles by RT-PCR with std error less than 0.9)”. For the same compound, the Insulin gene expression ([3]; 12 h) was “+ (detectable between 35 and 40 cycles by RT-PCR)”, the PDX-1 gene expression ([3]; 12 h) was “+++ (detectable at less than 35 cycles by RT-PCR with std error less than 0.9)” and the Sox17 gene expression ([3]; 12 h) was “+++ (detectable at less than 35 cycles by RT-PCR with std error less than 0.9)”. The glucagon gene expression ([3]; 12 h) was “+ (detectable between 35 and 40 cycles by RT-PCR)”, the “glucagon RT-PCR detection cycle” value ([3]; 12 hours) was > 35 cycles and the HNF-3 beta gene expression ([3]; 24 h) was “+++ (detectable at less than 35 cycles by RT-PCR with std error less than 0.9)”. The Insulin gene expression ([3]; 24 h) was “+ (detectable between 35 and 40 cycles by RT-PCR)”, the PDX-1 gene expression ([3]; 24 h) was “+++ (detectable at less than 35 cycles by RT-PCR with std error less than 0.9)” and the Sox17 gene expression ([3]; 24 h) was “+++ (detectable at less than 35 cycles by RT-PCR with std error less than 0.9)”. The glucagon gene expression ([3]; 24 h) was “+++ (detectable at less than 35 cycles by RT-PCR with std error less than 0.9)”, the “HNF-3 beta RT-PCR detection cycle” value ([3]; 24 hours) was < 35 cycles and the “Pdx-1 RT-PCR detection cycle” value ([3]; 24 hours) was < 35 cycles. The “Pdx-1 gene expression relative to human pancreas” value ([3]; 24 hours) was ~0.1 % of human pancreas levels and the “glucagon RT-PCR detection cycle” value ([3]; 24 hours) was < 24 cycles.
